Here are results for 1 compound from patent US9067894B1, “Compound, composition, and method of activating GIRK potassium channel and use of same for treating conditions of interest” (Vanderbilt University, priority 2013, dated 2015).

Structures are written as SMILES. Converted amounts (≈) assume the structure as drawn.

One data set has as its system GABAA (flunitrazepam). Put plainly: Radioligand displacement (Ricerca). Type of data set: binding, rat. Conditions: 10 μM. On the technique in general: Loss of bound radioactivity is the signal in a displacement assay; it reports binding, not function.
The next data set concerns the target T1, Muscarinic M3 (Homo sapiens, UniProt P20309).
T1 construct: Ricerca (contract laboratory that ran the panel)
Put plainly: Radioligand displacement (Ricerca). In kind it is binding.

A further data set has as its system Potassium channel KATP. The experiment in a line: Radioligand displacement (Ricerca). Type of data set: binding, human. Conditions: 10 μM.
In another data set the target is T2, Neuropeptide Y (Y2) (Homo sapiens, UniProt P49146).
T2 construct: Ricerca (contract laboratory that ran the panel)
The experiment in a line: Radioligand displacement (Ricerca). In kind it is binding.

The next data set concerns the target T3, Endothelin ETB (Homo sapiens, UniProt P24530).
T3 construct: Ricerca
The experiment in a line: Radioligand displacement (Ricerca). In kind it is binding.

A further data set addresses T4, Adrenergic β1 (Homo sapiens, UniProt P08588).
T4 construct: Ricerca (contract assay)
The experiment in a line: Radioligand displacement (Ricerca). In kind it is binding.

The target of the next data set is T5, Endothelin ETA (Homo sapiens, UniProt P25101).
T5 construct: Ricerca
T5 sequence (P25101 21-427): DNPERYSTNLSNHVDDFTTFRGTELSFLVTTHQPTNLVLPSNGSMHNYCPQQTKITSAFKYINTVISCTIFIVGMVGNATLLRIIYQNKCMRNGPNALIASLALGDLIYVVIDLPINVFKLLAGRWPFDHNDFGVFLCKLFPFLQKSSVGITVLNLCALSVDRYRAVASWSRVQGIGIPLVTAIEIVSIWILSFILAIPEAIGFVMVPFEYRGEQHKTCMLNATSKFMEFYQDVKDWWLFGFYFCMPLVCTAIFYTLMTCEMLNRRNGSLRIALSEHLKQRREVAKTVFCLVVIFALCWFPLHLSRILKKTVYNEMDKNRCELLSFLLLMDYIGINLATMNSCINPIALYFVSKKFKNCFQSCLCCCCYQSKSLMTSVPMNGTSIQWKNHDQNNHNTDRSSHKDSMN
Put plainly: Radioligand displacement (Ricerca). Type of data set: binding.

Another data set in a line: Solubility. In kind it is physicochemical.
The next data set concerns the target T6, Melatonin MT1 (Homo sapiens, UniProt P48039).
T6 construct: Ricerca (contract laboratory that ran the panel)
The experiment in a line: Radioligand displacement (Ricerca). In kind it is binding.

For the next data set, the target named is T7, Prostanoid EP4 (Homo sapiens, UniProt P35408).
T7 construct: Ricerca (contract laboratory that ran the panel)
T7 sequence (P35408 whole entry): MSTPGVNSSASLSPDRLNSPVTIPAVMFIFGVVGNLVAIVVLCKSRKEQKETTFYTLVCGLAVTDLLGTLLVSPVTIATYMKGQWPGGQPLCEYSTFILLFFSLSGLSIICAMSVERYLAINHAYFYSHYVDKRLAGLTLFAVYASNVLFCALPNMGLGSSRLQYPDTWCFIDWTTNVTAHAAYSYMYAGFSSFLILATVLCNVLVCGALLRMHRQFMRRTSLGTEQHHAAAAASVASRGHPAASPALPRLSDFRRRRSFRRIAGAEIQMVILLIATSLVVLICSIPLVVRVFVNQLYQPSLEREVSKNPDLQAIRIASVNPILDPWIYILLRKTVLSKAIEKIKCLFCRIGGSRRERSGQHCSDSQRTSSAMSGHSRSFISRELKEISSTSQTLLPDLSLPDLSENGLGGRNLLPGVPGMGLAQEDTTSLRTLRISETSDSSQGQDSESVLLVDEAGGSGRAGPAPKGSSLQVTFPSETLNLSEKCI
The experiment in a line: Radioligand displacement (Ricerca). Type of data set: binding.

A further data set relates to Thyroid hormone. Put plainly: Radioligand displacement (Ricerca). Type of data set: binding, human. Conditions: 10 μM.
The next data set has as its target T8, Sigma σl (Homo sapiens, UniProt Q99720).
T8 construct: Ricerca (contract panel)
Put plainly: Radioligand displacement (Ricerca). In kind it is binding.

A further data set deals with T9, Serotonin 5-HT2B (Homo sapiens, UniProt P41595).
T9 construct: Ricerca (contract panel)
T9 sequence (P41595 whole entry): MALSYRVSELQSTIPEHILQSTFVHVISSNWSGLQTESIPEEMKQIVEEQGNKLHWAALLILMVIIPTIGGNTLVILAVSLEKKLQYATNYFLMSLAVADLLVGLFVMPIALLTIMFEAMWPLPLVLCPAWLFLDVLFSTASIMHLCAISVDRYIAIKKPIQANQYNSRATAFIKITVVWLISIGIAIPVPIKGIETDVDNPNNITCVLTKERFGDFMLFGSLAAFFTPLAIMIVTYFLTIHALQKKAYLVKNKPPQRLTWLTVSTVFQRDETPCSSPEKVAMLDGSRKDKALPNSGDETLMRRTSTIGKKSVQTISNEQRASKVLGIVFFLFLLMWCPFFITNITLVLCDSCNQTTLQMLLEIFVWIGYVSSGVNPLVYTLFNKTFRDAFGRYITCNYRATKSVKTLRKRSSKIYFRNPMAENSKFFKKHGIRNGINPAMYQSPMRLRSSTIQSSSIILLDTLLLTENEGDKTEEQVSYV
The experiment in a line: Radioligand displacement (Ricerca). In kind it is binding.

The next data set deals with T10, Bradykinin B2 (Homo sapiens, UniProt P30411).
T10 construct: Ricerca
Put plainly: Radioligand displacement (Ricerca). Type of data set: binding.

The target of a further data set is T11, Adrenergic α2A (Homo sapiens, UniProt P08913).
T11 construct: Ricerca (contract assay)
Put plainly: Radioligand displacement (Ricerca). Type of data set: binding.

A further data set deals with T12, Opiate (MOP) (Homo sapiens, UniProt P35372).
T12 construct: Ricerca (contract laboratory that ran the panel)
T12 sequence (P35372 whole entry): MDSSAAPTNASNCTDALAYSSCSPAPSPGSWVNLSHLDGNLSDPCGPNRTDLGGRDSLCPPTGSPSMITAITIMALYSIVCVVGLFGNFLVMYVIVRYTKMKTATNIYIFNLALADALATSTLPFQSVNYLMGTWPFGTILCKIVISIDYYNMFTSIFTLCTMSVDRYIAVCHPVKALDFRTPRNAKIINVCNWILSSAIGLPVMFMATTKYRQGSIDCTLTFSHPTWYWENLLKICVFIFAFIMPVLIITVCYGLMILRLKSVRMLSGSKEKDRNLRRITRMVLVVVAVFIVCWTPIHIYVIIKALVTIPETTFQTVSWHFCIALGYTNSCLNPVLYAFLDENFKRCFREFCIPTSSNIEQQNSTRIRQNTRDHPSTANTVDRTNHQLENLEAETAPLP
Put plainly: Radioligand displacement (Ricerca). Type of data set: binding.

A further data set addresses T13, EGF (Homo sapiens, UniProt P00533).
T13 construct: Ricerca
Put plainly: Radioligand displacement (Ricerca). Type of data set: binding.

The target in a further data set is T14, Histamine H2 (Homo sapiens, UniProt P25021).
T14 construct: Ricerca (contract laboratory that ran the panel)
T14 sequence (P25021 whole entry): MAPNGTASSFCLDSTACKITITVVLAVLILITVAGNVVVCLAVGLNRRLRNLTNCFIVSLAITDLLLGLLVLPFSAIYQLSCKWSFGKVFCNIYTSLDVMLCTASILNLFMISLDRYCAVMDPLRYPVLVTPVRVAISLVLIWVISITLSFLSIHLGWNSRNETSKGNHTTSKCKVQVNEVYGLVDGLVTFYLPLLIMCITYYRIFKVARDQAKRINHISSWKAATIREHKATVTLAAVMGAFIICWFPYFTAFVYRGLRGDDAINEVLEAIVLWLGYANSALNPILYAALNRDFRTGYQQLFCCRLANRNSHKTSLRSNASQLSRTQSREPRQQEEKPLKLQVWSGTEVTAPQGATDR
Put plainly: Radioligand displacement (Ricerca). In kind it is binding.

T8 sequence (Q99720 whole entry): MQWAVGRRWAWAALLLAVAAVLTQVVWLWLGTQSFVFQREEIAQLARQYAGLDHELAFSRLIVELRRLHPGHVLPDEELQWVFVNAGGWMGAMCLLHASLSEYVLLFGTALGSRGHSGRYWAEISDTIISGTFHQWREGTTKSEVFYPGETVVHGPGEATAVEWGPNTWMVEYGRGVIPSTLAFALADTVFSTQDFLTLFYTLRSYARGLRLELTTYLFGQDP
T13 sequence (P00533 25-1210): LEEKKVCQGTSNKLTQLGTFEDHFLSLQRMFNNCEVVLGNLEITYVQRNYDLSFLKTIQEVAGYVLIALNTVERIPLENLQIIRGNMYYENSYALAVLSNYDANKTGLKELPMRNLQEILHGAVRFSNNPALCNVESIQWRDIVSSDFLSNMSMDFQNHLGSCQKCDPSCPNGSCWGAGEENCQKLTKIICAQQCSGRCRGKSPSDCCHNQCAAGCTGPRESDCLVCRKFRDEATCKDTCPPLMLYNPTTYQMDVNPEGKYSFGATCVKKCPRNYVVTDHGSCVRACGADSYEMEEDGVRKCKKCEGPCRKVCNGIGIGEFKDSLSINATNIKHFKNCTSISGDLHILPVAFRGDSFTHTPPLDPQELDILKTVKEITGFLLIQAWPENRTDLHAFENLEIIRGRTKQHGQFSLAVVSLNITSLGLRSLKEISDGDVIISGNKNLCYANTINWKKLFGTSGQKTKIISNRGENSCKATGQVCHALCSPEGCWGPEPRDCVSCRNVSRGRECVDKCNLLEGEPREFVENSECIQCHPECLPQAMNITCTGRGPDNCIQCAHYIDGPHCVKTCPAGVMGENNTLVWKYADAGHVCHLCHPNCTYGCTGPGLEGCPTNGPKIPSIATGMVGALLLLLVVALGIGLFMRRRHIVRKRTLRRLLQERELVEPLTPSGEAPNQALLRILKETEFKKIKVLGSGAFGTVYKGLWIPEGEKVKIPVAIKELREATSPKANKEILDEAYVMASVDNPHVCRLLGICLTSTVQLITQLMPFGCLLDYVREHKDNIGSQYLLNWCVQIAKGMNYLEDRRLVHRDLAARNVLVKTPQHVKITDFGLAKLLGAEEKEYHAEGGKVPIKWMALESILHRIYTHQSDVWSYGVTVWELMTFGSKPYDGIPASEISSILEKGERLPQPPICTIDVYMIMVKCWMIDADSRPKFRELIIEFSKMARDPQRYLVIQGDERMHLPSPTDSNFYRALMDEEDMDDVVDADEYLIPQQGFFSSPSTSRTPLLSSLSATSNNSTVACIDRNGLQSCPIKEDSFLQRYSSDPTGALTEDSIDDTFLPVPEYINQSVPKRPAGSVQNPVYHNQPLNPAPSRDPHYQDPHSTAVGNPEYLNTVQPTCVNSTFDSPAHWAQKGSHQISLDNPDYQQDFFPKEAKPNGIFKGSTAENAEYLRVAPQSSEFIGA
T4 sequence (P08588 whole entry): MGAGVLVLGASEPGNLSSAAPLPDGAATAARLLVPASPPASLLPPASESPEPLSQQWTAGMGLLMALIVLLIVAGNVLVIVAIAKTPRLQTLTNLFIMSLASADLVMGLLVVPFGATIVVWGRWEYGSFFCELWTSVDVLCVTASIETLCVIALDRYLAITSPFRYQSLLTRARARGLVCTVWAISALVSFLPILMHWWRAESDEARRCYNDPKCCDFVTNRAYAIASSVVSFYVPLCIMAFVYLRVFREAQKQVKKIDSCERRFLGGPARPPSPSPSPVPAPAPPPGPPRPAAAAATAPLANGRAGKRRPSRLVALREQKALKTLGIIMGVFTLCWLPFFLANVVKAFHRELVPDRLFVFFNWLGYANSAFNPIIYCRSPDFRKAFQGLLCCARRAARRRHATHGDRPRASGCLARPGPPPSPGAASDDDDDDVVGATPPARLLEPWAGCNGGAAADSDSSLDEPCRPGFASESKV
T1 sequence (P20309 whole entry): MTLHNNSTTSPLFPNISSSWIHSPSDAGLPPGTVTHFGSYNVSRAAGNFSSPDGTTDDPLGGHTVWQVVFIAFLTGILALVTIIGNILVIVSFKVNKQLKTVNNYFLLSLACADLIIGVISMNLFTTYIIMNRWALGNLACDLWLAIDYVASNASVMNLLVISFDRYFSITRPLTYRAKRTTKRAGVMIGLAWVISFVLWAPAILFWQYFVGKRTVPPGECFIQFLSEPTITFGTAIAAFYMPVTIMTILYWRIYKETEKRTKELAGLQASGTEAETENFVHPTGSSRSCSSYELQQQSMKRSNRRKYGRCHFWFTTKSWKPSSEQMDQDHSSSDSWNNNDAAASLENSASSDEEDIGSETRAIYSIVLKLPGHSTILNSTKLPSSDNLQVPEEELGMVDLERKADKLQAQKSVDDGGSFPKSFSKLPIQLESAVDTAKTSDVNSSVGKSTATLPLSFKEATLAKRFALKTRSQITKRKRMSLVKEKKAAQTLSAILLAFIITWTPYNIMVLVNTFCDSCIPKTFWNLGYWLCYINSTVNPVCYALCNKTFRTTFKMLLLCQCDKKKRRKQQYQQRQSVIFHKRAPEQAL
T6 sequence (P48039 whole entry): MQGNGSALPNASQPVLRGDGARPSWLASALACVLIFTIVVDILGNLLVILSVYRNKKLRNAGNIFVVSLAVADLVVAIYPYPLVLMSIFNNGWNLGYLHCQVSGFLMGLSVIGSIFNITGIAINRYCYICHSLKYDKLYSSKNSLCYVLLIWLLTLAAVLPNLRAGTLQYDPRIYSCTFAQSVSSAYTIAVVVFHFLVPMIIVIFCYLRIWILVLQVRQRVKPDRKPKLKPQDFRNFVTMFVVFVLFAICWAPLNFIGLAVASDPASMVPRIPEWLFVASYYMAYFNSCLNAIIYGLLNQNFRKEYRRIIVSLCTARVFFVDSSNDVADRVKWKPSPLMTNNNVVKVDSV

On to `Cc1cc(NC(=O)Nc2ccc(F)c(F)c2)n(-c2ccccc2)n1` [VU0456810, 1-(3,4-difluorophenyl)-3-(3-methyl-1-phenyl-1H-pyrazol-5-yl)urea], for which the “% Inhibition” value is on record as 24% in the data set with GABAA (flunitrazepam); 2% in the data set on Potassium channel KATP; 8% in the data set on Thyroid hormone; 49% on Sigma σl (10 μM); 46% at Serotonin 5-HT2B (10 μM). Also, the inhibition at 10 µM on Muscarinic M3 was 13%; at Neuropeptide Y (Y2) it was -5%; at Endothelin ETB, 3%; at Adrenergic β1, 0%; on Endothelin ETA, 1%; at Melatonin MT1 it was 11%. Moreover, the inhibition at 10 µM on Prostanoid EP4 is -4%; at Sigma σl, < 50%; on Serotonin 5-HT2B, < 50%; at Bradykinin B2 it was -1%; on Adrenergic α2A, 4%; on Opiate (MOP), 21%. Besides, the inhibition at 10 µM on EGF and at Histamine H2 was -2% in each case. Moreover, the concentration in solution in the data set “Solubility” (solubility) came to 17.5 µM (≈ 5.75 µg/mL).

Usually % Inhibition stands for the change of the read-out against control, counted positive when it falls. A high value points to a response far below the control. For orientation: inhibition means the change of the read-out against control, counted positive when it falls. Usually solubility stands for the dissolved amount per volume that the medium holds.
